Assay results from PMC11672540 (2024).

Assays:
Experiment in all cases: ITC
[1] = test system: ML4 (DNA, aptamer, none) TTCAAATCTTGGTACGTTCTGCCTTTTCTTATTTTGCTTTGGGTTACCTAGTCTAGATTTGAA; conditions: 0.5x PBS (about 68 mM NaCl, 1.4 mM KCl), 5 mM MgCl2
[2] = test system: ML12 (DNA, aptamer, none) TTCAAATCTGCGGCGACTAATTCTTAGTGGTGGTTGCAATGCGCTGGGATGAGTCTAGATTTGAA; conditions: 0.5x PBS (about 68 mM NaCl, 1.4 mM KCl), 5 mM MgCl2, 23 °C
[3] = test system: ML13 (DNA, aptamer, none) TTCAAATCTGAGCAGCCTAGTTACTGACGGGTTTATAGTACTCGCACTGAGTCTAGATTTGAA; conditions: 0.5x PBS (about 68 mM NaCl, 1.4 mM KCl), 5 mM MgCl2, 23 °C
[4] = test system: MT2-R1 (DNA, aptamer, none) GGGACGACGCTAGGGGATCTTTTGGGGTTTGTATGGGCGTCGTCCC; conditions: 137 mM NaCl, 2.7 mM KCl, 1 mM MgCl2; 1x PBS, 23 °C
[5] = test system: ML3-mut5 (DNA, aptamer, none) TTCAAATCTTATGTACGTTCTATCGCATGGATGGGATTTTTGGTTACCTAGTCTAGATTTGAA; conditions: 0.5x PBS (about 68 mM NaCl, 1.4 mM KCl), 5 mM MgCl2, 0.005% Triton X-100, 23 °C, table says NA, 2000 titrant, 50 aptamer
[6] = test system: ML11 (DNA, aptamer, none) TTCAAATCTGAGCAGCCTAGTTACTGACGGGTTTATAGTACTCGTATTGAGTCTAGATTTGAA; conditions: 0.5x PBS (about 68 mM NaCl, 1.4 mM KCl), 5 mM MgCl2, 23 °C
[7] = test system: MT2-R3 (DNA, aptamer, none) GGGACGACGGTACCCGCCGGTGCAGGATCTGGGGTGGTGTCGTCCC; conditions: 137 mM NaCl, 2.7 mM KCl, 1 mM MgCl2; 1x PBS, 23 °C
[8] = test system: ML4-mut2 (DNA, aptamer, none) TTCAAATCTTGGTACGTTCTGCATTTTCTTATTTTGCTTTGGGTTACCTAGTCTAGATTTGAA; conditions: 0.5x PBS (about 68 mM NaCl, 1.4 mM KCl), 5 mM MgCl2, 0.005% Triton X-100, 23 °C
[9] = test system: ML4-mut1 (DNA, aptamer, none) TTCAAATCTTGGTACGTACTGCCTTTTCTTATTTTGCTTTGGGTTACCTAGTCTAGATTTGAA; conditions: 0.5x PBS (about 68 mM NaCl, 1.4 mM KCl), 5 mM MgCl2, 0.005% Triton X-100, 23 °C
[10] = test system: MT2-R2 (DNA, aptamer, none) GGGACGACGAGGGGATCCATCCAATGGGGTTTGTATACGTCGTCCC; conditions: 137 mM NaCl, 2.7 mM KCl, 1 mM MgCl2; 1x PBS, 23 °C
[11] = test system: ML4-mut3 (DNA, aptamer, none) TTCAAATCTTGGTACGTTCTGCCTATTCTTATTTTGCTTTGGGTTACCTAGTCTAGATTTGAA; conditions: 0.5x PBS (about 68 mM NaCl, 1.4 mM KCl), 5 mM MgCl2, 0.005% Triton X-100, 23 °C
[12] = test system: ML3-mut3 (DNA, aptamer, none) TTCAAATCTTATGTACGTTCTATCGCATGGATGTGATTTTGGGTTACCTAGTCTAGATTTGAA; conditions: 0.5x PBS (about 68 mM NaCl, 1.4 mM KCl), 5 mM MgCl2, 0.005% Triton X-100, 23 °C
[13] = test system: ML4-mut6 (DNA, aptamer, none) TTCAAATCTTGGTACGTTCTGCCTTTTCTTATTTAGCTTTGGGTTACCTAGTCTAGATTTGAA; conditions: 0.5x PBS (about 68 mM NaCl, 1.4 mM KCl), 5 mM MgCl2, 0.005% Triton X-100, 23 °C
[14] = test system: ML4-mut4 (DNA, aptamer, none) TTCAAATCTTGGTACGTTCTGCCTTTACTTATTTTGCTTTGGGTTACCTAGTCTAGATTTGAA; conditions: 0.5x PBS (about 68 mM NaCl, 1.4 mM KCl), 5 mM MgCl2, 0.005% Triton X-100, 23 °C
[15] = test system: Aptamer-2 (DNA, aptamer, none) AGGAATTCAGATCTCCCTGCAGGTGGTGTTTTTTTTGTGTGCTGTGTTTTTGTGATGCATGCTCGAGGAGCTCAGGATCCCG; conditions: 10 mM NaCl, 0.5 mM KCl, 0.2 mM MgCl2, 0.1 mM CaCl2; 2 mM Tris-HCl, 23 °C; very weak or no binding
[16] = test system: 84-nt aptaMETH (DNA, aptamer, none) ACTGGAGCTCAATCAGTACACGACGGTTGCAAGTGGGACTCTGGTAGGCTGGGTTAATTTGGGACAAGCTTCAACCATGGAGTA; conditions: 200 mM NaCl, 5 mM MgCl2; 20 mM Tris pH 7.4, 23 °C
[17] = test system: M13 (DNA, aptamer, none) GGGACGACGGCACGAGGTTATTCGTTGGTTGCACTGCGCTGGGAGGAAGTCGTCCC; conditions: 137 mM NaCl, 2.7 mM KCl, 1 mM MgCl2; 1x PBS, 23 °C; lowest KD of trial 3
[18] = test system: ML4-mut5 (DNA, aptamer, none) TTCAAATCTTGGTACGTTCTGCCTTTTCTTATATTGCTTTGGGTTACCTAGTCTAGATTTGAA; conditions: 0.5x PBS (about 68 mM NaCl, 1.4 mM KCl), 5 mM MgCl2, 0.005% Triton X-100, 23 °C
[19] = test system: ML3-mut4 (DNA, aptamer, none) TTCAAATCTTATGTACGTTCTATCGCATGGATGGGATTATGGGTTACCTAGTCTAGATTTGAA; conditions: 0.5x PBS (about 68 mM NaCl, 1.4 mM KCl), 5 mM MgCl2, 0.005% Triton X-100, 23 °C
[20] = test system: M4 (DNA, aptamer, none) GGGACGACGCACTATGGCTAGGGTTGGTACGGTCGTGAACCGCGGGGTGTCGTCCC; conditions: 137 mM NaCl, 2.7 mM KCl, 1 mM MgCl2; 1x PBS, 23 °C
[21] = test system: ML3-mut1 (DNA, aptamer, none) TTCAAATCTTATGTAAGTTCTATCGCATGGATGGGATTTTGGGTTACCTAGTCTAGATTTGAA; conditions: 0.5x PBS (about 68 mM NaCl, 1.4 mM KCl), 5 mM MgCl2, 0.005% Triton X-100, 23 °C
[22] = test system: ML7 (DNA, aptamer, none) TTCAAATCTGGTGCCCTTTCGCAGTCGGTTGGTAATGAGATCACTTTAGAGTCTAGATTTGAA; conditions: 0.5x PBS (about 68 mM NaCl, 1.4 mM KCl), 5 mM MgCl2, 23 °C
[23] = test system: ML10 (DNA, aptamer, none) TTCAAATCTGAGCAGCCTAGTTACTGACGGGTTTATAGTACTCACATTGAGTCTAGATTTGAA; conditions: 0.5x PBS (about 68 mM NaCl, 1.4 mM KCl), 5 mM MgCl2, 23 °C
[24] = test system: ML3-mut6 (DNA, aptamer, none) TTCAAATCTTATGTACGTTCTATCGCATGGATGGGATTTTGGGTTACCAAGTCTAGATTTGAA; conditions: 0.5x PBS (about 68 mM NaCl, 1.4 mM KCl), 5 mM MgCl2, 0.005% Triton X-100, 23 °C, table says NA, 2000 titrant, 50 aptamer
[25] = test system: ML3-mut2 (DNA, aptamer, none) TTCAAATCTTATGTACGTACTATCGCATGGATGGGATTTTGGGTTACCTAGTCTAGATTTGAA; conditions: 0.5x PBS (about 68 mM NaCl, 1.4 mM KCl), 5 mM MgCl2, 0.005% Triton X-100, 23 °C
[26] = test system: ML4-mut7 (DNA, aptamer, none) TTCAAATCTTGGTACGTTCTGCCTTTTCTTATTTTGCTATGGGTTACCTAGTCTAGATTTGAA; conditions: 0.5x PBS (about 68 mM NaCl, 1.4 mM KCl), 5 mM MgCl2, 0.005% Triton X-100, 23 °C
[27] = test system: MT2-R4 (DNA, aptamer, none) GGGACGACGGCAATTGCCGGTGCAGGATCTGAATTATCGTCGTCCC; conditions: 137 mM NaCl, 2.7 mM KCl, 1 mM MgCl2; 1x PBS, 23 °C
[28] = test system: ML3 (DNA, aptamer, none) TTCAAATCTTATGTACGTTCTATCGCATGGATGGGATTTTGGGTTACCTAGTCTAGATTTGAA; conditions: 0.5x PBS (about 68 mM NaCl, 1.4 mM KCl), 5 mM MgCl2; 0.5x PBS pH 7.4, 0.005% Triton X-100, 23 °C; 9.9 at 2 mM, 34.3 at 1 mM Mg2+

SMILES: CC(N)Cc1ccccc1 (stereo not shown)
- KD ([1]; 0.5x PBS, 23 °C): 117 ± 4 µM
- KD [2]: 18.2 ± 0.5 µM
- KD ([3]; double titration): 140 ± 3.9 µM
- KD [4]: 5.7 ± 0.2 µM

SMILES: CCCC(C(=O)c1ccc2c(c1)OCO2)N1CCCC1 (stereo not shown)
- KD ([1]; 0.5x PBS, 23 °C): 344 ± 23 µM

SMILES: CNC(C)Cc1ccc(O)cc1 (stereo not shown)
- KD ([1]; 0.5x PBS, 23 °C): 255 ± 8 µM

SMILES: CNC(C)Cc1ccc2c(c1)OCO2 (stereo not shown)
- KD ([1]; 0.5x PBS, 23 °C): 223 ± 8 µM

SMILES: CN[C@@H](C)Cc1ccccc1
- KD [5]: > 1000 µM
- KD [6]: 2.4 ± 0.1 µM
- KD [7]: 18.0 ± 1.1 µM
- KD ([1]; 0.5x PBS pH 7.4, 0.005% Triton X-100, 23 °C, 16.2 at 2 mM, 65.2 at 1 mM Mg2+): 2.5 ± 0.1 µM
- KD [2]: 5.7 ± 0.3 µM
- KD [8]: 4.0 ± 0.1 µM
- KD [9]: 67.1 ± 4.1 µM
- KD [10]: 5.0 ± 0.1 µM
- KD [11]: 3.2 ± 0.1 µM
- KD [12]: 1.4 ± 0.1 µM
- KD [13]: 3.8 ± 0.1 µM
- KD [14]: 4.9 ± 0.2 µM
- KD [15]: > 1000 µM
- KD [16]: 364 ± 28 µM
- KD [17]: 3.3 µM
- KD [18]: 3.3 ± 0.1 µM
- KD [19]: 72.5 ± 3.1 µM
- KD [3]: 7.0 ± 0.4 µM
- KD [20]: 12 µM
- KD [21]: 408 ± 16 µM
- KD [22]: 1.30 ± 0.03 µM
- KD [23]: 1.9 ± 0.1 µM
- KD [24]: > 1000 µM
- KD [25]: 39.0 ± 1.8 µM
- KD [26]: 64.3 ± 3.9 µM
- KD [27]: 10.1 ± 0.7 µM
- KD [4]: 2.5 ± 0.1 µM
- KD [28]: 1.5 ± 0.1 µM

SMILES: CN[C@@H](C)[C@@H](O)c1ccccc1
- KD ([1]; 0.5x PBS, 23 °C): 372 ± 24 µM

SMILES: CN[C@H](C)Cc1ccccc1
- KD ([1]; 0.5x PBS, 23 °C): 450 ± 21 µM
- KD [15]: > 1000 µM
- KD [16]: > 1000 µM

SMILES: COC(=O)C(c1ccccc1)C1CCCCN1 (stereo not shown)
- KD ([1]; 0.5x PBS, 23 °C): 749 ± 10 µM
